# Measurements published in article PMC10382584, “Macrocyclization of linear molecules by deep learning to facilitate macrocyclic drug candidates discovery” (Nature Communications, 2023).
# Where “and” joins values, the source holds several entries; their conditions need not be identical. Equal entries are not always repeated.
# Key:
# [1] = In vivo PK study in mice;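 as to all read-outs here: mice dosed intravenously or orally, three animals per time point, plasma drug levels quantified by LC-MS/MS, PK parameters derived by noncompartmental analysis in Phoenix WinNonLin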; settings: for concentration at time point (concentration-time data, Supplementary Fig. 8): individual mice 1-3; for AUCinf / Cmax / T1/2 / Tmax: mice
# Procedure: The mice were separately administered to a group of three mice per time point for intravenous (5 mg/kg) or oral administration (5 mg/kg). […] Then the samples were separated by centrifugation and analyzed by LC-MS/MS (XEVO TQ-S) to determine the plasma drug concentrations. The PK parameters were calculated using the noncompartment model with Phoenix WinNonLin v8.0. The animal experimental procedures were approved by the Medicine Research Ethics Committee of Hangzhou Leading Pharmatech Co., Ltd.
# [2] = Chemical stability in DMSO stock solution (HPLC purity); assay type: physicochemical; settings: mean±SD
# Text: compounds were formulated in the solubilizing vehicle (5% DMSO/30% PEG400/65% […]
# safety to the mice in the test.
# 6. What was the sample dissolved in for the in vitro and in vivo experiments? Response: The solvent information for the in vitro and in vivo experiments has been added in the revised manuscript. […]
# 7. Was the stability of the different compounds assessed and compared to Fedratinib? This is generally a critical point in macrocyclic studies. […]
# in DMSO stock solution. Test compounds were incubated at room temperature and 60 ℃, respectively, for 72 h, and their purities (%) were determined using HPLC equipped with a CORTECS C18 column (4.6*50 mm, 2.7 μm particle size) and a UV/VIS detector setting of λ=210 nm. All co mpounds were eluted with the two solvent systems ([…] as organic phase in Method I and CH3OH as organic phase in Method II) at a flow rate of 0.3 ml/min. Each experiment repeated for three times and the results are represented as mean±SD.
# Ta b e l R 1 . Comparison of chemical stability of different compounds at room temperature and 60 ℃, respectively.
# [3] = tested on: DSS-induced colitis mice; test: In vivo efficacy study, DSS-induced colitis model; design: species or system male BALB/c mice; settings: for DAI score (Fig. 6b) / Body weight (Fig. 6a): Compound 3 5 mg/kg, individual mice
# [4] = 3.5% DSS colitis mice, compound 3 5 mg/kg, Fedratinib 10 mg/kg, intragastric, day 8 to day 14
smiles,measurement,setting,value
Cc1cnc2nc1Nc1cccc(c1)COCC=CCOCc1cc(ccc1OCCN1CCCC1)N2 [Compound 3],"concentration at time point (concentration-time data, Supplementary Fig. 8)","[1]; iv 5 mg/kg, 0.5 h, 5 mg/kg",112.17 and 96.91 and 108.01
same,"concentration at time point (concentration-time data, Supplementary Fig. 8)","[1]; iv 5 mg/kg, 1 h, 5 mg/kg",33.98 and 41.85 and 29.29
same,"concentration at time point (concentration-time data, Supplementary Fig. 8)","[1]; iv 5 mg/kg, 2 h, 5 mg/kg",22.85 and 22.08 and 24.61
same,"concentration at time point (concentration-time data, Supplementary Fig. 8)","[1]; iv 5 mg/kg, 4 h, 5 mg/kg",23.46 and 31.4 and 25.29
same,"concentration at time point (concentration-time data, Supplementary Fig. 8)","[1]; iv 5 mg/kg, 8 h, 5 mg/kg",17.79 and 10.67 and 14.54
same,"concentration at time point (concentration-time data, Supplementary Fig. 8)","[1]; iv 5 mg/kg, 24 h, 5 mg/kg",2.18 and 0 (2×)
same,AUCinf,[1]; iv (5 mg/kg),443.20 ng·h/mL
same,Cmax,[1]; iv (5 mg/kg),351.23 ng/mL
same,T1/2,[1]; iv (5 mg/kg),0.52 h
same,Tmax,[1]; iv (5 mg/kg),0.083 h
same,AUCinf,[1]; po (5 mg/kg),114.69 ng·h/mL
same,Cmax,[1]; po (5 mg/kg),6.64 ng/mL
same,T1/2,[1]; po (5 mg/kg),10.07 h
same,Tmax,[1]; po (5 mg/kg),4.00 h
same,"concentration at time point (concentration-time data, Supplementary Fig. 8)","[1]; po 5 mg/kg, 1 h, 5 mg/kg",2.46 and 4.26 and 2.81
same,"concentration at time point (concentration-time data, Supplementary Fig. 8)","[1]; po 5 mg/kg, 2 h, 5 mg/kg",3.59 and 4.51 and 5.67
same,"concentration at time point (concentration-time data, Supplementary Fig. 8)","[1]; po 5 mg/kg, 3 h, 5 mg/kg",4.59 and 4.64 and 5.68
same,"concentration at time point (concentration-time data, Supplementary Fig. 8)","[1]; po 5 mg/kg, 4 h, 5 mg/kg",6.18 and 5.41 and 8.34
same,"concentration at time point (concentration-time data, Supplementary Fig. 8)","[1]; po 5 mg/kg, 6 h, 5 mg/kg",4.85 and 6.09 and 5.97
same,"concentration at time point (concentration-time data, Supplementary Fig. 8)","[1]; po 5 mg/kg, 8 h, 5 mg/kg",4.94 and 5.49 and 4.7
same,"concentration at time point (concentration-time data, Supplementary Fig. 8)","[1]; po 5 mg/kg, 24 h",0
same,purity after incubation in DMSO stock solution,"[2]; 60 ℃, 0 h",99.78±0.07%
same,purity after incubation in DMSO stock solution,"[2]; 60 ℃, 2 h",99.46±0.04%
same,purity after incubation in DMSO stock solution,"[2]; 60 ℃, 24 h",99.64±0.04%
same,purity after incubation in DMSO stock solution,"[2]; 60 ℃, 48 h",99.66±0.06%
same,purity after incubation in DMSO stock solution,"[2]; 60 ℃, 72 h",99.78±0.03%
same,purity after incubation in DMSO stock solution,"[2]; Room Temperature, 0 h",99.68±0.05%
same,purity after incubation in DMSO stock solution,"[2]; Room Temperature, 2 h",99.77±0.01%
same,purity after incubation in DMSO stock solution,"[2]; Room Temperature, 24 h",99.68±0.07%
same,purity after incubation in DMSO stock solution,"[2]; Room Temperature, 48 h",99.63±0.02%
same,purity after incubation in DMSO stock solution,"[2]; Room Temperature, 72 h",99.64±0.10%
same,"histological scores (H&E, Ameho criteria)","[3]; 3.5% DSS colitis mice, compound 3 5 mg/kg, Fedratinib 10 mg/kg",lower
same,body weight change,[3]; [4],alleviate the decrease of body weight
same,disease activity index (DAI) scores,[3]; [4],significantly decreased
same,ratio of colon weight to length,"[3]; 3.5% DSS colitis mice, compound 3 5 mg/kg, Fedratinib 10 mg/kg, compared to the model group",decreased
same,DAI score (Fig. 6b),[3]; day 0,0
same,Body weight (Fig. 6a),"[3]; day 0, 5 mg/kg",21.4 and 20.3 and 22.6 and 21.9 (2×) and 23.4 and 23.9 and 21.5
same,DAI score (Fig. 6b),"[3]; day 1, 5 mg/kg",0 (7×) and 1
same,Body weight (Fig. 6a),"[3]; day 1, 5 mg/kg, in g (unit assumed)",22.2 and 21 and 23.1 and 22.4 and 23.5 and 21.4 and 24.6 and 22.7
same,DAI score (Fig. 6b),"[3]; day 2, 5 mg/kg",2 and 0 (5×) and 1 (2×)
same,Body weight (Fig. 6a),"[3]; day 2, 5 mg/kg, in g (unit assumed)",21.8 and 22.8 and 22.4
same,DAI score (Fig. 6b),"[3]; day 3, 5 mg/kg",0 (5×) and 2 (3×)
same,DAI score (Fig. 6b),"[3]; day 4, 5 mg/kg",2 (4×) and 0 and 1 (2×) and 3
